As a reminder, the Ki is a measure of affinity in units of concentration, obtained from inhibition or displacement.

Assay [1] deals with 5-hydroxytryptamine receptor 1B (Homo sapiens, UniProt P28222). Put plainly: Displacement of [3H]carboxytryptamine from recombinant human 5-HT1B receptor expressed in HEK cells by scintillation counting. Format: cell-based, HEK293.
Assay [2] addresses 5-hydroxytryptamine receptor 1D (Homo sapiens, UniProt P28221). Put plainly: Displacement of [3H]GR125743 from recombinant human 5-HT1D receptor expressed in HEK cells by scintillation counting. Format: cell-based, HEK293.

5-hydroxytryptamine receptor 1B, sequence (P28222 whole entry): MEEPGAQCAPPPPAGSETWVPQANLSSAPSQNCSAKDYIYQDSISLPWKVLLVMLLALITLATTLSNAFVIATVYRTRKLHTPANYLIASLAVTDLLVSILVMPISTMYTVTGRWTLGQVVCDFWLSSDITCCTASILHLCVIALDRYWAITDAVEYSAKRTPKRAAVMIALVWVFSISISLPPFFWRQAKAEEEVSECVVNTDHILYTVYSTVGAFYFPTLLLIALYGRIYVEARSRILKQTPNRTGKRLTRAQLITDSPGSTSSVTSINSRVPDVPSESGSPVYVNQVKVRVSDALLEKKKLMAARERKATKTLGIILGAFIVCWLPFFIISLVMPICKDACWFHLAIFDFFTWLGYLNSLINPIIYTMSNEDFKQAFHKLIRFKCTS
5-hydroxytryptamine receptor 1D, sequence (P28221 whole entry): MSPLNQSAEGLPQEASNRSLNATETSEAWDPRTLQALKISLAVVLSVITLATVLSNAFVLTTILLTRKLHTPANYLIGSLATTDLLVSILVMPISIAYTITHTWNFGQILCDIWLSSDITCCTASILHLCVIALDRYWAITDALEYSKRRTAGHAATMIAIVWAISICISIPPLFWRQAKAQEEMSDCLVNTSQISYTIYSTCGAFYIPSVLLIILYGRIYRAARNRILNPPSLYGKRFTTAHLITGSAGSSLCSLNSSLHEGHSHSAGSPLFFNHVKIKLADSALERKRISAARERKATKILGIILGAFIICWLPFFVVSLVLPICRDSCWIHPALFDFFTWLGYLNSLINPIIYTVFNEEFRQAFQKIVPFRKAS

Regarding `COc1ccc(NC(=O)c2ccc3c(c2)N(C)C(=O)CN3c2ccc(Cl)c(Cl)c2)cc1N1CCN(C)CC1`, the values for the Ki in assay [1] and in assay [2] were 120 nM and 44 nM, respectively.

The values are drawn from ChEMBL document CHEMBL1909604, “A novel potential therapeutic avenue for autism: design, synthesis and pharmacophore generation of SSRIs with dual action” (Bioorg Med Chem Lett, 2011).
